# According to patent publication EP4806898A1, “HETEROARYL DERIVATIVE COMPOUND AND USE THEREOF” (Voronoi Inc., priority 2023, dated 2025):
# Read-outs that look alike come from different tables or passages of the source.
# Experiments:
# UWB1.289 cells = assay: Cell proliferation inhibitory activity in BRCA1/2-mutant or HRD-positive cells (Cell Titer-Glo); assay type: cell-based; conditions: read-out: GI50 UWB1.289 BRCA1 mut
# Method: <Experimental Example 2> Evaluation of Cell Proliferation Inhibitory Activity in BRCA1/2-Mutant or HRD-Positive Cells
# To evaluate the inhibitory activity of the compound according to the present invention on the proliferation of BRCA1/2 mutants or homologous recombination deficient (HRD) positive cell lines, the following experiments were performed. UWB1.289 cells were cultured in medium (50% MEBM + 50% RPMI1640), and 1,000 cells were seeded in a well plate (black clear bottom 96-well plate, Corning) 16 to 24 hours prior to compound treatment. The compounds were diluted in dimethyl sulfoxide (3-fold serial dilution starting at 10 µM, for a total of 10 concentrations) and injected at 1 µl per well, resulting a final concentration range of […] to 10 µM. Measurements of live cells were performed by a reaction in a 37 °C and CO2 incubator for 144 hours after compound treatment. The cells were incubated for 10 minutes in an incubator using Cell Titer-Glo luminescent cell-viability reagent (Promega), and luminescence intensity thereof was measured using a reader (SynergyNeo2, Biotek). GI50 values were calculated using the GraphPad Prism version 8.4.3 (GraphPad software Inc., San Diego) program.
# recombinant USP1 protein = biological target: T1, recombinant USP1 protein (Homo sapiens, UniProt O94782, DEL125-138/DEL229-408/DEL608-737); assay: Binding affinity to recombinant USP1 protein by differential scanning fluorimetry; conditions: read-out: ΔTm (°C)
# T1 sequence (O94782 with tags, fused parts or gaps DEL125-138/DEL229-408/DEL608-737): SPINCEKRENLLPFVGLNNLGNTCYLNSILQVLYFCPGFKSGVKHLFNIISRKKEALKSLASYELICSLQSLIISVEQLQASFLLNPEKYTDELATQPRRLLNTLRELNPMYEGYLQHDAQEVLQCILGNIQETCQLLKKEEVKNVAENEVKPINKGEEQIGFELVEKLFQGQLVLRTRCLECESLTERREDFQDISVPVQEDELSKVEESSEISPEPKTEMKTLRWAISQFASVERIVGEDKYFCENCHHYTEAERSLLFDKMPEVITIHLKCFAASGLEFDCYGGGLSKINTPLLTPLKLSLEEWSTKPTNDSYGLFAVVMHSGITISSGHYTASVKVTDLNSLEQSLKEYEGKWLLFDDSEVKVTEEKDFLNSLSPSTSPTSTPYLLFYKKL
# Outline: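 USP1 (Δ1-66, Δ125-138, Δ229-408, Δ608-737) at 0.03 mg/mL with dye in 50 mM Tris-HCl pH 8.0, 150 mM NaCl, 2% glycerol, 1 mM DTT; compounds at 100 µM final. Tm read on real-time PCR instrument; ΔTm = Tm with compound minus Tm with DMSO.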
# [1] = UWB1289, UWB1.289 cells, 144 hours after compound treatment, Cell Titer-Glo, 1.5 nM to 10 µM
# [2] = compound 100 µM, 0.03 mg/mL USP1 (Δ1-66, Δ125-138, Δ229-408, Δ608-737), Tm with compound minus Tm with DMSO
ΔTm at 100 µM (recombinant USP1 protein; [2]) [°C],SMILES,GI50 (UWB1.289 cells; [1]) [nM],"GI50 (UWB1.289 cells; UWB1289, 144 h) [nM]",ΔTm at 100 µM (recombinant USP1 protein) [°C]
> 5,"COc1ncnc(C2CC2)c1-c1ncc2cc(C(=O)NCC3CCC3)n(Cc3ccc(-c4nc(C(F)(F)F)cn4C(C)C)cc3)c2n1 [Example 19, N-(cyclobutylmethyl)-2-(4-cyclopropyl-6-methoxypyrimidin-5-yl)-7-(4-(1-isopropyl-4-(trifluoromethyl)-1H-imidazol-2-yl)benzyl)-7H-pyrrolo[2,3-d]pyrimidine-6-carboxamide]",< 100,–,–
> 5,"COc1ncnc(C2CC2)c1-c1ncc2cc(C(=O)NCC3(C)CC(F)(F)C3)n(Cc3ccc(-c4nc(C(F)(F)F)cn4C(C)C)cc3)c2n1 [Example 20, 2-(4-cyclopropyl-6-methoxypyrimidin-5-yl)-N-((3,3-difluoro-1-methylcyclobutyl)methyl)-7-(4-(1-isopropyl-4-(trifluoromethyl)-1H-imidazol-2-yl)benzyl)-7H-pyrrolo[2,3-d]pyrimidine-6-carboxamide]",100 to 500,–,–
> 5,"COc1ncnc(C2CC2)c1-c1ncc2cc(C(=O)NCC#N)n(Cc3ccc(-c4nc(C(F)(F)F)cn4C(C)C)cc3)c2n1 [Example 22, N-(cyanomethyl) - 2-(4-cyclopropyl-6-methoxypyrimidin-5-yl)-7-(4-(1-isopropyl-4-(trifluoromethyl)-1H-imidazol-2-yl)benzyl)-7H-pyrrolo[2,3-d]pyrimidine-6-carboxamide]",< 100,–,–
> 5,"COC[C@H](C)NC(=O)c1cc2cnc(-c3c(OC)ncnc3C3CC3)nc2n1Cc1ccc(-c2nc(C(F)(F)F)cn2C(C)C)cc1 [Example 23, (S)-2-(4-cyclopropyl-6-methoxypyrimidin-5-yl)-7-(4-(1-isopropyl-4-(trifluoromethyl)-1H-imidazol-2-yl)benzyl)-N-(1-methoxypropan-2-yl)-7H-pyrrolo[2,3-d]pyrimidine-6-carboxamide]",< 100,–,–
> 5,"COc1ncnc(C2CC2)c1-c1ncc2cc(C(=O)NCC(C)=O)n(Cc3ccc(-c4nc(C(F)(F)F)cn4C(C)C)cc3)c2n1 [Example 29, 2-(4-cyclopropyl-6-methoxypyrimidin-5-yl)-7-(4-(1-isopropyl-4-(trifluoromethyl)-1H-imidazol-2-yl)benzyl)-N-(2-oxopropyl)-7H-pyrrolo[2,3-d]pyrimidine-6-carboxamide]",< 100,–,–

# The remaining lines, values behind:
SMILES,ΔTm at 100 µM (recombinant USP1 protein; [2]) [°C],GI50 (UWB1.289 cells; [1]) [nM],"GI50 (UWB1.289 cells; UWB1289, 144 h) [nM]",ΔTm at 100 µM (recombinant USP1 protein) [°C]
"COc1ncnc(C2CC2)c1-c1ncc2cc(C(=O)N3CCC(N4CCOCC4)CC3)n(Cc3ccc(-c4nc(C(F)(F)F)cn4C(C)C)cc3)c2n1 [Example 14, (2-(4-cyclopropyl-6-methoxypyrimid in-5-yl)-7-(4-(1-isopropyl-4-(trifluoromethyl)-1H-imidazol-2-yl)benzyl)-7H-pyrrolo[2,3-d]pyrimidin-6-yl) (4-morpholinopipe ridin-1-yl)methanone]",> 5,< 100,–,–
"COc1ncnc(C2CC2)c1-c1ncc2cc(C(=O)NC3CCC3)n(Cc3ccc(-c4nc(C(F)(F)F)cn4C(C)C)cc3)c2n1 [Example 15, N-cyclobutyl-2-(4-cyclopropyl-6-methoxypyrimidin-5-yl)-7-(4-(1-isopropyl-4-(trifluoromethyl)-1H-imidazol-2-yl)benzyl)-7H-pyrrolo[2,3-d]pyrimidine-6-carboxamide]",> 5,< 100,–,–
"COc1ncnc(C2CC2)c1-c1ncc2cc(C(=O)Nc3ccccc3)n(Cc3ccc(-c4nc(C(F)(F)F)cn4C(C)C)cc3)c2n1 [Example 17, 2-(4-cyclopropyl-6-methoxypyrimidin-5-yl)-7-(4-(1-isopropyl-4-(trifluoromethyl)-1H-imidazol-2-yl)benzyl)-N-phenyl-7H-pyrrolo[2,3-d]pyrimidine-6-carboxamide]",> 5,< 100,–,–
"COc1ncnc(C2CC2)c1-c1ncc2cc(C(=O)N3CCC3)n(Cc3ccc(-c4nc(C(F)(F)F)cn4C(C)C)cc3)c2n1 [Example 18, azetidin-1-yl(2-(4-cyclopropyl-6-methoxypyrimidin-5-yl)-7-(4-(1-isopropyl-4-(trifluoromethyl)-1H-imidazol-2-yl)benzyl)-7H-pyrrolo[2,3-d]pyrimidin-6-yl)methanone]",> 5,< 100,–,–
"COc1ncnc(C2CC2)c1-c1ncc2cc(C(=O)NCCF)n(Cc3ccc(-c4nc(C(F)(F)F)cn4C(C)C)cc3)c2n1 [Example 21, 2-(4-cyclopropyl-6-methoxypyrimidin-5-yl)-N-(2-fluoroethyl)-7-(4-(1-isopropyl-4-(trifluoromethyl)-1H-imidazol-2-yl)benzyl)-7H-pyrrolo[2,3-d]pyrimidine-6-carboxamide]",–,–,< 100,> 5
"COc1ncnc(C2CC2)c1-c1ncc2cc(C(=O)N3CCN(C)CC3)n(Cc3ccc(-c4nc(C(F)(F)F)cn4C(C)C)cc3)c2n1 [Example 24, (2-(4-cyclopropyl-6-methoxypyrimid in-5-yl)-7-(4-(1-isopropyl-4-(trifluoromethyl)-1H-imidazol-2-yl)benzyl)-7H-pyrrolo[2,3-d]pyrimidin-6-yl) (4-methylpiperazi n-1-yl)methanone]",> 5,< 100,–,–
"COc1ncnc(C2CC2)c1-c1ncc2cc(C(=O)N3CCN(C4COC4)CC3)n(Cc3ccc(-c4nc(C(F)(F)F)cn4C(C)C)cc3)c2n1 [Example 25, (2-(4-cyclopropyl-6-methoxypyrimid in-5-yl)-7-(4-(1-isopropyl-4-(trifluoromethyl)-1H-imidazol-2-yl)benzyl)-7H-pyrrolo[2,3-d]pyrimidin-6-yl) (4-(oxetan-3-yl)piperazin-1-yl)methanone]",> 5,< 100,–,–
"CNCCN(C)C(=O)c1cc2cnc(-c3c(OC)ncnc3C3CC3)nc2n1Cc1ccc(-c2nc(C(F)(F)F)cn2C(C)C)cc1 [Example 26, 2-(4-cyclopropyl-6-methoxypyrimidin-5-yl)-7-(4-(1-isopropyl-4-(trifluoromethyl)-1H-imidazol-2-yl)benzyl)-N-methyl-N-(2-(methylamino)ethyl)-7H-pyrrolo[2,3-d]pyrimidine-6-carboxamide]",> 5,< 100,–,–
"COc1ncnc(C2CC2)c1-c1ncc2cc(C(=O)Nc3cccc4ccccc34)n(Cc3ccc(-c4nc(C(F)(F)F)cn4C(C)C)cc3)c2n1 [Example 28, 2-(4-cyclopropyl-6-methoxypyrimidin-5-yl)-7-(4-(1-isopropyl-4-(trifluoromethyl)-1H-imidazol-2-yl)benzyl)-N-(naphthalen-1-yl)-7H-pyrrolo[2,3-d]pyrimidine-6-carboxamide]",> 5,< 100,–,–
"COc1ncnc(C2CC2)c1-c1ncc2cc(C(=O)Nc3cnn(C)c3)n(Cc3ccc(-c4nc(C(F)(F)F)cn4C(C)C)cc3)c2n1 [Example 30, 2-(4-cyclopropyl-6-methoxypyrimidin-5-yl)-7-(4-(1-isopropyl-4-(trifluoromethyl)-1H-imidazol-2-yl)benzyl)-N-(1-methyl-1H-pyrazol-4-yl)-7H-pyrrolo[2,3-d]pyrimidine-6-carboxamide]",> 5,< 100,–,–
"COc1ncnc(C2CC2)c1-c1ncc2cc(C(=O)Nc3nccs3)n(Cc3ccc(-c4nc(C(F)(F)F)cn4C(C)C)cc3)c2n1 [Example 31, 2-(4-cyclopropyl-6-methoxypyrimidin-5-yl)-7-(4-(1-isopropyl-4-(trifluoromethyl)-1H-imidazol-2-yl)benzyl)-N-(thiazol-2-yl)-7H-pyrrolo[2,3-d]pyrimidine-6-carboxamide]",> 5,100 to 500,–,–
